Data from US20230123334A1, “AMINO LIPID COMPOUND, PREPARATION METHOD THEREFOR, AND APPLICATION THEREOF” (SHENZHEN SHENXIN BIOTECHNOLOGY CO., LTD., priority 2020, published 2023).

Experiments:
Type in all cases: cell-based
[1] = test system: Hela cells; test: Transfection of Hela cell line, DNA vectors; settings: 75 ng plasmid DNA, GFP cells / total cells
Procedure: 1. The compound (0.01 mmol) prepared in Example 1 was dissolved in 1 mL of anhydrous ethanol. After ultrasonically dissolved, 10 μL of the resultant amino lipid solution in ethanol was taken and mixed with 5 μL of DOPE solution in ethanol (0.01 m), and then to the obtained mixture was added 35 μL of 0.2M sodium acetate buffer (pH 5.6), and 50 μL of liposome solution was prepared by vortex at a constant rotating speed for 30 s. 4 μL was taken from the 50 μL liposome solution and added to 46 μL of 0.02M sodium acetate buffer (pH 5.6), and the final liposome solution was formed by vortex at a constant rotating speed for 30 s. 5 μL was taken from the final liposome solution and mixed with 75 ng plasmid DNA (psin-EGFP-IRES-Puro, Clontech) dissolved in 5 μL of 0.02 M sodium acetate buffer, and was allowed to stay at room temperature for 30 min to form a lipid/DNA transfection complex.
2. 10 μL of the lipid/DNA transfection complex was incubated at room temperature for 30 min, followed by addition of 90 μL of fresh resuspended cells (3-5×10^4 cells) and mixing with a pipette. 100 μL of cells+lipid/DNA complex was transferred to separate wells of a 96-well culture plate immediately, and placed in an incubator containing 5% CO2 at 37° C.
3. Hoechst33258 (Invitrogen) was added at a final concentration of 0.2 μg/mL to the cells 20 to 24 hours after initial cell transfection, and cultured in darkness at 37° C. for 15 min. Afterwards, the cells were washed once with a PBS solution, and then added with medium for culture for 20 to 24 h.
4. The cells were placed in a high-throughput confocal microscope (Molecular Devices ImageXpress), and four visual fields of the image of the cells were captured for each well, and images at three laser wavelengths were captured for each sample: bright field images of cells (FIG. 2(a) and FIG. 2(b)), Hoechst-staining images showing total nuclei (FIG. 2(c) and FIG. 2(d)) and GFP images showing success in transfection with the plasmid DNA and the expression of GFP (FIG. 2(e) and FIG. 2(f)). MetaXpress software was used to separately count the cells in the Hoechst-staining images and GFP images, and then the number of cells expressing GFP was divided by the total number of nuclei to give the absolute cell transfection efficiency. The absolute transfection efficiency was calculated as follows: […]
(§1) Cell line: Hela cells (ATCC 35241)
(§2) Medium: DMEM supplemented with 10% fetal bovine serum (Invitrogen)
(§3) Screening: cell transfection on 96-well plates
Detection (readout): percentage of the number of GFP fluorescent cells relative to the total number of cells (the total number of cells was determined using nucleus dye Hoechst). Lipofectamine2000 (Invitrogen) was used as the positive control, according to the manufacturer's instructions.
Method: the experimental method was basically the same with Example 4.

[2] = test system: Hela cells; test: Transfection of Hela cell line, mRNA vectors; settings: 50 ng EGFP mRNA per well
Procedure: as §1, §2, §3
Detection (readout): percentage of the number of GFP fluorescent cells relative to the total number of cells (the total number of cells was determined using nucleus dye Hoechst). A commercially available liposome transfection reagent Lipofectamine2000 (Invitrogen) was used as the positive control group, according to the manufacturer's instructions.
Method: the experimental method was basically the same with Example 4, and the mass of EGFP mRNA for transfection was 50 ng per well.

[3] = test system: HEK293 cells; test: Preliminary screening as DNA vectors, GFP transfection of HEK293 cells; settings: HEK293 cells; lipid/DOPE liposome with 75 ng plasmid DNA (psin-EGFP-IRES-Puro); number of cells expressing GFP divided by total number of nuclei (Hoechst)
Procedure, shortened: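 HEK293 cells in DMEM/10% FBS transfected with 75 ng EGFP plasmid per well complexed with amino lipid/DOPE liposomes in pH 5.6 sodium acetate. Hoechst nuclear stain added 20-24 h post-transfection, then cells cultured another 20-24 h. Confocal imaging gives GFP-positive cells as % of total nuclei.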

[4] = test system: HEK293 cells; test: Preliminary screening as mRNA vectors, EGFP mRNA transfection of HEK293 cells; settings: HEK293 cells, 96-well plates, EGFP mRNA 50 ng per well; percentage of GFP fluorescent cells relative to total number of cells (Hoechst)
Procedure, shortened: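 HEK293 cells in DMEM plus 10% FBS transfected in 96-well format with 50 ng EGFP mRNA per well; Lipofectamine2000 served as positive control. Read-out is the percentage of GFP-fluorescent cells among total cells, counted by Hoechst nuclear stain.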

| Compound | Absolute DNA transfection efficiency in Hela cells [1] | Absolute mRNA transfection efficiency in Hela cells [2] | Absolute DNA transfection efficiency in HEK293 cells [3] | Absolute mRNA transfection efficiency in HEK293 cells [4] |
| --- | --- | --- | --- | --- |
| CCCCCCCCCCCSc1nc(NCCN(C)C)nc(SCCCCCCC)n1 [Compound S7S11D1] | 5.9% | 5.9% | – | – |
| CCCCCCCCCCCSc1nc(NCCN2CCOCC2)nc(SCCCCCCC)n1 [Compound S7S11D2] | 13.6% | 13.6% | – | – |
| CCCCCCCCCCCSc1nc(NCCN2CCCCC2)nc(SCCCCCCC)n1 [Compound S7S11D4] | 7.9% | 7.9% | – | – |
| CCCCCCCCCCCSc1nc(NCCN(CC)CC)nc(SCCCCCCC)n1 [Compound S7S11D7] | 5.2% | 5.2% | – | – |
| CCCCCCCCCCCCSc1nc(NCCN(C)C)nc(SCCCCCCC)n1 [Compound S7S12D1] | 4.2% | 4.1% | – | – |
| CCCCCCCCCCCCSc1nc(NCCN2CCOCC2)nc(SCCCCCCC)n1 [Compound S7S12D2] | 9.2% | 9.2% | – | – |
| CCCCCCCCCCCCSc1nc(NCCN2CCCCC2)nc(SCCCCCCC)n1 [Compound S7S12D4] | 4.7% | 4.7% | – | – |
| CCCCCCCCCCCCSc1nc(NCCN(CC)CC)nc(SCCCCCCC)n1 [Compound S7S12D7] | 3.5% | 3.5% | – | – |
| CCCCCCCCCCCNc1nc(NCCN(C)C)nc(SCCCCCCCC)n1 [Compound S8N11D1] | 21.12% | 21.2% | – | – |
| CCCCCCCCCCCNc1nc(NCCN2CCOCC2)nc(SCCCCCCCC)n1 [Compound S8N11D2] | 12.7% | 12.7% | – | – |
| CCCCCCCCCCCNc1nc(NCCN2CCCCC2)nc(SCCCCCCCC)n1 [Compound S8N11D4] | 7.6% | 7.6% | – | – |
| CCCCCCCCCCCNc1nc(NCCN(CC)CC)nc(SCCCCCCCC)n1 [Compound S8N11D7] | 12.2% | 12.3% | – | – |
| CCCCCCCCCCCCNc1nc(NCCN(C)C)nc(SCCCCCCCC)n1 [Compound S8N12D1] | 11.5% | 11.5% | – | – |
| CCCCCCCCCCCCNc1nc(NCCN2CCOCC2)nc(SCCCCCCCC)n1 [Compound S8N12D2] | 19.3% | 19.3% | – | – |
| CCCCCCCCCCCCNc1nc(NCCN2CCCCC2)nc(SCCCCCCCC)n1 [Compound S8N12D4] | 3.81% | 3.8% | – | – |
| CCCCCCCCCCCCNc1nc(NCCN(CC)CC)nc(SCCCCCCCC)n1 [Compound S8N12D7] | 4.7% | 4.7% | – | – |

| Compound | Absolute DNA transfection efficiency in Hela cells [1] | Absolute mRNA transfection efficiency in Hela cells [2] | Absolute DNA transfection efficiency in HEK293 cells [3] | Absolute mRNA transfection efficiency in HEK293 cells [4] |
| --- | --- | --- | --- | --- |
| CCCCCCCCCCCCCNc1nc(NCCN(C)C)nc(SCCCCCCCC)n1 [Compound S8N13D1] | 9.7% | 9.7% | – | – |
| CCCCCCCCCCCCCNc1nc(NCCN2CCOCC2)nc(SCCCCCCCC)n1 [Compound S8N13D2] | 9.83% | 9.8% | – | – |
| CCCCCCCCCCCCCNc1nc(NCCN2CCCCC2)nc(SCCCCCCCC)n1 [Compound S8N13D4] | 1.8% | 1.8% | – | – |
| CCCCCCCCCCCCCCCCNc1nc(NCCCN2CCOCC2)nc(N(CCCCCCCCCCCC)CCCCCCCCCCCC)n1 [N16^2N12D8] | – | – | 0.4% | 4.3% |
| CCCCCCCCCCCCCCCCNc1nc(NCCCN2CCN(C)CC2)nc(N(CCCCCCCCCCCC)CCCCCCCCCCCC)n1 [N16^2N12D9] | – | – | 0.5% | 0.0% |
| CCCCCCCCCCCCCCCCNc1nc(NCC2CCN(C)CC2)nc(N(CCCCCCCCCCCC)CCCCCCCCCCCC)n1 [N16^2N12D10] | – | – | 1.5% | 0.0% |
| CCCCCCCCCCCCCCCCCCNc1nc(NCCN(C)C)nc(N(CCCCCCCCCCCC)CCCCCCCCCCCC)n1 [N18^2N12D1] | – | – | 1.0% | 0.4% |
| CCCCCCCCCCCCCCCCCCNc1nc(NCCN2CCOCC2)nc(N(CCCCCCCCCCCC)CCCCCCCCCCCC)n1 [N18^2N12D2] | – | – | 0.0% | 0.1% |
| CCCCCCCCCCCCCCCCCCNc1nc(NCCN2CCCC2)nc(N(CCCCCCCCCCCC)CCCCCCCCCCCC)n1 [N18^2N12D3] | – | – | 1.5% | 3.4% |
| CCCCCCCCCCCCCCCCCCNc1nc(NCCN2CCCCC2)nc(N(CCCCCCCCCCCC)CCCCCCCCCCCC)n1 [N18^2N12D4] | – | – | 0.9% | 1.2% |
| CCCCCCCCCCCCCCCCCCNc1nc(NCCN2CCN(C)CC2)nc(N(CCCCCCCCCCCC)CCCCCCCCCCCC)n1 [N18^2N12D5] | – | – | 0.7% | 0.7% |
| CCCCCCCCCCCCCCCCCCNc1nc(NCCCN(C)C)nc(N(CCCCCCCCCCCC)CCCCCCCCCCCC)n1 [N18^2N12D6] | – | – | 1.3% | 2.1% |
| CCCCCCCCCCCCCCCCCCNc1nc(NCCN(CC)CC)nc(N(CCCCCCCCCCCC)CCCCCCCCCCCC)n1 [N18^2N12D7] | – | – | 0.2% | 0.7% |
| CCCCCCCCCCCCCCCCCCNc1nc(NCCCN2CCOCC2)nc(N(CCCCCCCCCCCC)CCCCCCCCCCCC)n1 [N18^2N12D8] | – | – | 0.4% | 2.3% |
| CCCCCCCCCCCCCCCCCCNc1nc(NCCCN2CCN(C)CC2)nc(N(CCCCCCCCCCCC)CCCCCCCCCCCC)n1 [N18^2N12D9] | – | – | 0.6% | 0.6% |
| CCCCCCCCCCCCCCCCCCNc1nc(NCC2CCN(C)CC2)nc(N(CCCCCCCCCCCC)CCCCCCCCCCCC)n1 [N18^2N12D10] | – | – | 0.7% | 2.2% |
